# Test results from ChEMBL document CHEMBL1201862, “PubChem BioAssay data set” (2004).
#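 Exposure lasted 48 hours, with cells grown in 96-well plates and compounds tested at five concentrations. The concentration for 50% growth inhibition is given as GI50.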 Active and inactive are the calls of the source. No stated cut-off is given here; in the data, active = GI50 up to about 1.1 µM and inactive = higher.
# Columns and labels:
# Experiment in all cases: NCI anticancer screen, dose series, 48 h
# 786-0 = test system: 786-0
# A498 = test system: A498
# A549 = test system: A549
# ACHN = test system: ACHN
# CAKI-1 = test system: CAKI-1
# COLO 205 = test system: COLO 205
# DLD-1 = test system: DLD-1
# DMS-114 = test system: DMS-114
# DMS-273 = test system: DMS-273
# EKVX = test system: EKVX
# HCT-116 = test system: HCT-116
# HCT-15 = test system: HCT-15
# HL-60 = test system: HL-60
# HOP-18 = test system: HOP-18
# HOP-62 = test system: HOP-62
# HOP-92 = test system: HOP-92
# HT-29 = test system: HT-29
# IGROV-1 = test system: IGROV-1
# K562 = test system: K562
# KM-20L2 = test system: KM-20L2
# KM12 = test system: KM12
# LXFL 529 = test system: LXFL 529
# M14 = test system: M14
# M19-MEL = test system: M19-MEL
# MOLT-4 = test system: MOLT-4
# Malme-3M = test system: Malme-3M
# NCI-H226 = test system: NCI-H226
# NCI-H23 = test system: NCI-H23
# NCI-H460 = test system: NCI-H460
# NCI-H522 = test system: NCI-H522
# OVCAR-3 = test system: OVCAR-3
# OVCAR-5 = test system: OVCAR-5
# OVCAR-8 = test system: OVCAR-8
# RPMI-8226 = test system: RPMI-8226
# SF-268 = test system: SF-268
# SF-295 = test system: SF-295
# SF-539 = test system: SF-539
# SK-MEL-28 = test system: SK-MEL-28
# SK-MEL-2 = test system: SK-MEL-2
# SK-MEL-5 = test system: SK-MEL-5
# SK-OV-3 = test system: SK-OV-3
# SN12C = test system: SN12C
# SNB-19 = test system: SNB-19
# SNB-75 = test system: SNB-75
# SNB-78 = test system: SNB-78
# SR = test system: SR
# SW-620 = test system: SW-620
# U-251 = test system: U-251
# UACC-257 = test system: UACC-257
# UO-31 = test system: UO-31
compound,measurement,setting,value
NC(=O)COc1ccc(Br)cc1Br,GI50,786-0,> 100 µM (inactive)
same,GI50,A498,> 100 µM (inactive)
same,GI50,A549,> 100 µM (inactive)
same,GI50,ACHN,> 100 µM (inactive)
same,GI50,CAKI-1,> 100 µM (inactive)
same,GI50,COLO 205,> 100 µM (inactive)
same,GI50,DLD-1,> 100 µM (inactive)
same,GI50,DMS-114,> 100 µM (inactive)
same,GI50,DMS-273,> 100 µM (inactive)
same,GI50,EKVX,29.2 µM (inactive)
same,GI50,HCT-116,> 100 µM (inactive)
same,GI50,HCT-15,> 100 µM
same,GI50,HL-60,> 100 µM (inactive)
same,GI50,HOP-18,> 100 µM (inactive)
same,GI50,HOP-62,> 100 µM (inactive)
same,GI50,HOP-92,> 100 µM (inactive)
same,GI50,HT-29,> 100 µM (inactive)
same,GI50,IGROV-1,> 100 µM (inactive)
same,GI50,K562,> 100 µM (inactive)
same,GI50,KM-20L2,> 100 µM (inactive)
same,GI50,KM12,85.3 µM (inactive)
same,GI50,LXFL 529,> 100 µM (inactive)
same,GI50,M14,> 100 µM (inactive)
same,GI50,M19-MEL,> 100 µM (inactive)
same,GI50,MOLT-4,> 100 µM (inactive)
same,GI50,Malme-3M,> 100 µM (inactive)
same,GI50,NCI-H226,> 100 µM (inactive)
same,GI50,NCI-H23,> 100 µM (inactive)
same,GI50,NCI-H460,> 100 µM (inactive)
same,GI50,NCI-H522,> 100 µM (inactive)
same,GI50,OVCAR-3,> 100 µM (inactive)
same,GI50,OVCAR-5,> 100 µM (inactive)
same,GI50,OVCAR-8,> 100 µM (inactive)
same,GI50,RPMI-8226,51.9 µM (inactive)
same,GI50,SF-268,> 100 µM (inactive)
same,GI50,SF-295,> 100 µM (inactive)
same,GI50,SF-539,> 100 µM (inactive)
same,GI50,SK-MEL-28,> 100 µM (inactive)
same,GI50,SK-MEL-2,> 100 µM (inactive)
same,GI50,SK-MEL-5,> 100 µM (inactive)
same,GI50,SK-OV-3,> 100 µM (inactive)
same,GI50,SN12C,> 100 µM (inactive)
same,GI50,SNB-19,> 100 µM (inactive)
same,GI50,SNB-75,52.1 µM (inactive)
same,GI50,SNB-78,> 100 µM (inactive)
same,GI50,SR,> 100 µM (inactive)
same,GI50,SW-620,> 100 µM (inactive)
same,GI50,U-251,> 100 µM (inactive)
same,GI50,UACC-257,> 100 µM (inactive)
same,GI50,UO-31,> 100 µM (inactive)
